# Assay results from PMC6010121, “Structural re-positioning, in silico molecular modelling, oxidative degradation, and biological screening of linagliptin as adenosine 3 receptor (ADORA3) modulators targeting hepatocellular carcinoma” (Journal of Enzyme Inhibition and Medicinal Chemistry, 2018).
# Molecular target: T1, adenosine 3 receptor (ADORA3) (Homo sapiens, UniProt P0DMS8)
# T1 construct: recombinant human ADORA3 (Abcam)
# T1 sequence (P0DMS8 1-318): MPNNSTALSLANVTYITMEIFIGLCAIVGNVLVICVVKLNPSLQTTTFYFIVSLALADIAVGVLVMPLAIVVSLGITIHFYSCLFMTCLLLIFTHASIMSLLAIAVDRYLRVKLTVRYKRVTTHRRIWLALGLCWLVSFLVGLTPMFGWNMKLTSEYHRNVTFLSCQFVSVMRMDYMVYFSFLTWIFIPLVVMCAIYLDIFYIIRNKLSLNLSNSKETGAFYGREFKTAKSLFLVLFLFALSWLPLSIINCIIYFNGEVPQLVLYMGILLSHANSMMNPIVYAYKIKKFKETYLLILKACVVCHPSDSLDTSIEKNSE
# Assay: ELISA-based binding inhibition with recombinant human ADORA3 on anti-ADORA3 antibody-coated wells; Ki calculated from IC50 ([…])
smiles,measurement,value
"CC#CCn1c(N2CCC[C@@H](N)C2)nc2c1c(=O)n(Cc1nc(C)c3ccccc3n1)c(=O)n2C [LIN, linagliptin]",Ki,37.7 nM
